Measurements from ChEMBL document CHEMBL3351382, “New thiophene-1,2,4-triazole-5(3)-ones: highly bioactive thiosemicarbazides, structures of Schiff bases and triazole-thiols” (Eur J Med Chem, 2014).
≈ marks a conversion by molar mass, not a printed value. Calls of active or inactive are those of the source. The rule behind the calls is not given here.

Columns and labels:
Staphylococcus aureus = assay: Antimicrobial activity against Staphylococcus aureus ATCC 25923 after 24 hrs by agar dilution method; assay type: functional
Enterococcus faecalis = assay: Antimicrobial activity against Enterococcus faecalis ATCC 29212 after 24 hrs by agar dilution method; assay type: functional, organism-based
Listeria monocytogenes = assay: Antimicrobial activity against Listeria monocytogenes ATCC 43251 after 24 hrs by agar dilution method; assay type: functional, organism-based
Bacillus cereus = assay: Antimicrobial activity against Bacillus cereus 709 Roma after 24 hrs by agar dilution method; assay type: functional
[1] = test system: Mycolicibacterium smegmatis; assay: Antimicrobial activity against Mycobacterium smegmatis ATCC 607 after 24 hrs by agar dilution method; assay type: functional
Candida albicans = assay: Antimicrobial activity against Candida albicans ATCC 60193 after 24 hrs by agar dilution method; assay type: functional, organism-based
Saccharomyces cerevisiae = assay: Antimicrobial activity against Saccharomyces cerevisiae RSKK 251 after 24 hrs by agar dilution method; assay type: functional, organism-based
[2] = Antioxidant activity assessed as trolox equivalent of ferric ion reducing activity using fe3+-TPTZ at 200 ug/ml by FRAP assay; assay type: physicochemical
Escherichia coli = assay: Antimicrobial activity against Escherichia coli ATCC 25922 after 24 hrs by agar dilution method; assay type: functional, organism-based
Pseudomonas aeruginosa = assay: Antimicrobial activity against Pseudomonas aeruginosa ATCC 10145 after 24 hrs by agar dilution method; assay type: functional, organism-based
[3] = test system: Yersinia pseudotuberculosis; details: ATCC 911
[4] = Antioxidant activity assessed as DPPH scavenging activity at 200 ug/ml after 60 mins by spectrophotometry; assay type: physicochemical; details: 1 h
[5] = Antioxidant activity assessed as DPPH scavenging activity at 10 ug/ml after 60 mins by spectrophotometry; assay type: physicochemical; details: 1 h

SMILES | MIC (Staphylococcus aureus) | MIC (Enterococcus faecalis) | MIC (Listeria monocytogenes) | MIC (Bacillus cereus) | MIC [1] | MIC (Candida albicans) | MIC (Saccharomyces cerevisiae) | Activity [2] | MIC (Escherichia coli) | MIC (Pseudomonas aeruginosa) | MIC [3] | Activity [4] | MIC (Staphylococcus aureus; ATCC 25923, 24 h) | MIC ([1]; ATCC 607, 24 h) | Activity [5]
O=C(Cn1nc(Cc2cccs2)n(/N=C/c2ccccc2)c1=O)N/N=C/c1ccccc1 | inactive | inactive | inactive | inactive | inactive | inactive | inactive | 35 µM | inactive | inactive | inactive |  |  |  | 
Nn1c(Cc2cccs2)nn(CC(=O)N/N=C/c2ccco2)c1=O | inactive | inactive | inactive | inactive | inactive | inactive | inactive | 10 µM | inactive | inactive | inactive | 9.7% |  |  | 
Nn1c(Cc2cccs2)nn(CC(=O)N/N=C/c2ccccc2)c1=O | inactive | inactive | inactive | inactive | inactive | inactive | inactive | 40 µM | inactive | inactive | inactive |  |  |  | 
Nn1c(Cc2cccs2)nn(Cc2nnc(S)n2-c2ccc(Br)cc2)c1=O |  | inactive | inactive | 1750 µg/mL (≈ 3.77 mM) |  | inactive | inactive | 70 µM | inactive | inactive | inactive | 22.1% | 1750 µg/mL (≈ 3.77 mM) | 1750 µg/mL (≈ 3.77 mM) | 
CC1(C)S[C@@H]2[C@H](NC(=O)[C@H](N)c3ccccc3)C(=O)N2[C@H]1C(=O)O | Active | Active | Active | Active | Active |  |  |  | Active | Active | Active |  |  |  | 
Cc1ccc(NC(=S)NNC(=O)Cn2nc(Cc3cccs3)n(N)c2=O)cc1 |  | inactive | inactive | inactive |  | inactive | inactive | 1257 µM | inactive | inactive | inactive |  | 3220 µg/mL (≈ 7.72 mM) | 1610 µg/mL (≈ 3.86 mM) | 88.2%
Nn1c(Cc2cccs2)nn(CC(=O)NNC(=S)Nc2ccc(F)cc2)c1=O |  | inactive | inactive | inactive | inactive | inactive | inactive | 503 µM | inactive | inactive | inactive |  | 2410 µg/mL (≈ 5.72 mM) |  | 69%
O=C(Cn1nc(Cc2cccs2)n(/N=C/c2ccco2)c1=O)N/N=C/c1ccco1 | inactive | inactive | inactive | inactive | inactive | inactive | inactive | 79 µM | inactive | inactive | inactive | 30.9% |  |  | 
COc1ccc(/C=N/NC(=O)Cn2nc(Cc3cccs3)n(N)c2=O)cc1 | inactive | inactive | inactive | inactive | inactive | inactive | inactive | 87 µM | inactive | inactive | inactive |  |  |  | 
O=C(Cn1nc(Cc2cccs2)n(/N=C/c2cccs2)c1=O)N/N=C/c1cccs1 | inactive | inactive | inactive | inactive | inactive | inactive | inactive | 27 µM | inactive | inactive | inactive |  |  |  | 
Nn1c(Cc2cccs2)nn(CC(=O)N/N=C/c2cccs2)c1=O | inactive | inactive | inactive | inactive | inactive | inactive | inactive | 36 µM | inactive | inactive | inactive |  |  |  | 
Cc1ccc(-n2c(S)nnc2Cn2nc(Cc3cccs3)n(N)c2=O)cc1 | inactive | inactive | inactive | inactive | inactive | inactive | inactive | 54 µM | inactive | inactive | inactive | 23.9% |  |  | 
OC(Cn1cncn1)(Cn1cncn1)c1ccc(F)cc1F |  |  |  |  |  | Active | Active |  |  |  |  |  |  |  | 
COc1ccc(/C=N/NC(=O)Cn2nc(Cc3cccs3)n(/N=C/c3ccc(OC)cc3)c2=O)cc1 | inactive | inactive | inactive | inactive | inactive | inactive | inactive | 54 µM | inactive | inactive | inactive |  |  |  | 
Nn1c(Cc2cccs2)nn(CC(=O)NNC(=S)Nc2ccc(Br)cc2)c1=O |  | inactive | inactive | 950 µg/mL (≈ 1.97 mM) |  | inactive | inactive | 635 µM | inactive | inactive | inactive |  | 950 µg/mL (≈ 1.97 mM) | 950 µg/mL (≈ 1.97 mM) | 84.4%
O=C(Cn1nc(Cc2cccs2)n(/N=C/c2cccnc2)c1=O)N/N=C/c1cccnc1 | inactive | inactive | inactive | inactive | inactive | inactive | inactive | 16 µM | inactive | inactive | inactive |  |  |  | 
Nn1c(Cc2cccs2)nn(CC(=O)N/N=C/c2cccnc2)c1=O | inactive | inactive | inactive | inactive | inactive | inactive | inactive | 26 µM | inactive | inactive | inactive |  |  |  | 
CCOC(=O)Cn1nc(Cc2cccs2)n(N)c1=O | inactive | inactive | inactive | inactive |  | inactive | inactive | 14 µM | inactive | inactive | inactive | 10% |  | 994 µg/mL (≈ 3.52 mM) | 
Nn1c(Cc2cccs2)nn(Cc2nnc(S)n2-c2ccccc2)c1=O | inactive | inactive | inactive | inactive | inactive | inactive | inactive | 11 µM | inactive | inactive | inactive | 62.7% |  |  | 
Nn1c(Cc2cccs2)nn(CC(=O)NNC(=S)Nc2ccccc2)c1=O |  | inactive | inactive | 5050 µg/mL (≈ 12.5 mM) |  | inactive | inactive | 584 µM | inactive | inactive | inactive |  | 2520 µg/mL (≈ 6.26 mM) | 1260 µg/mL (≈ 3.13 mM) | 83.4%
NNC(=O)Cn1nc(Cc2cccs2)n(N)c1=O | inactive | inactive | inactive | inactive |  | inactive | inactive | 1368 µM | inactive | inactive | inactive | 1.9% |  | 994 µg/mL (≈ 3.7 mM) | 
Nn1c(Cc2cccs2)nn(Cc2nnc(S)n2-c2ccc(F)cc2)c1=O | inactive | inactive | inactive | inactive | inactive | inactive | inactive | 39 µM | inactive | inactive | inactive | 31.7% |  |  | 
